BindingDB's records for doi:10.1210/endo.135.6.7988476 (Mcgill University, 1994)
pKi: −log10 of the molar value. Bridge positions count the residues as written; N and C are the ends. Square brackets hold non-standard residues; d marks the D form. Peptide text beside a SMILES is read from it. * marks the point of attachment. NH(1-naphthylmethyl) = c1ccc2c(CN*)cccc2c1; Phe(4-Cl) = N[C@@H](Cc1ccc(Cl)cc1)C(=O)O; dPhe(4-Cl) = N[C@H](Cc1ccc(Cl)cc1)C(=O)O; 2Nal = N[C@@H](Cc1ccc2ccccc2c1)C(=O)O; d1Nal = N[C@H](Cc1cccc2ccccc12)C(=O)O; d2Nal = N[C@H](Cc1ccc2ccccc2c1)C(=O)O; 1Nal = N[CH](Cc1cccc2ccccc12)C(=O)O; Thr(ol) = C[CH](O)[CH](N)CO; Abu = CC[C@H](N)C(=O)O

Legend:
[1] = molecular target: Somatostatin receptor type 1 (Homo sapiens, UniProt P30872)
[2] = molecular target: Somatostatin receptor type 3 (Homo sapiens, UniProt P32745)
[3] = molecular target: Somatostatin receptor type 2 (Homo sapiens, UniProt P30874)
[4] = molecular target: Somatostatin receptor type 4 (Homo sapiens, UniProt P31391)
Sequence of Somatostatin receptor type 4 (P31391 whole entry): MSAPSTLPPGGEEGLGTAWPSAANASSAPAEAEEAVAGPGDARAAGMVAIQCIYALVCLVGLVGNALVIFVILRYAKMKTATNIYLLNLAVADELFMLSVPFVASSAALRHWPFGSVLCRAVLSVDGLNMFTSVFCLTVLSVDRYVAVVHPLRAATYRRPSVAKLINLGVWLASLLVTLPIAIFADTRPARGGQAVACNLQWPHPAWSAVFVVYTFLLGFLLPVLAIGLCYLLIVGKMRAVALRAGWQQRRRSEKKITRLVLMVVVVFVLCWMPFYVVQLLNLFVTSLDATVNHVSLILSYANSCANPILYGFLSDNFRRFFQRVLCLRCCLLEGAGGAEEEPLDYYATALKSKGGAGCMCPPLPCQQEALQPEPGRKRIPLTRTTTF

Sequence of Somatostatin receptor type 1 (P30872 whole entry): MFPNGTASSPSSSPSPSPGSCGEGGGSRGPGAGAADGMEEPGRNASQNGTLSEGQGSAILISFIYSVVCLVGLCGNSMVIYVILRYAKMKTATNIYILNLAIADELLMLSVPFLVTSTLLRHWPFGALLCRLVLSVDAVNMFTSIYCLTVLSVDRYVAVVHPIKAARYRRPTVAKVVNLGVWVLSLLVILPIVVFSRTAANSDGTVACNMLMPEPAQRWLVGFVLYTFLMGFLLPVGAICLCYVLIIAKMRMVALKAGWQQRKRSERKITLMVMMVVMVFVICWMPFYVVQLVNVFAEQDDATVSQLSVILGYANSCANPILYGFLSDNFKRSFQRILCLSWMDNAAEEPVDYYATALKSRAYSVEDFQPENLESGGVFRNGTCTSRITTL
Sequence of Somatostatin receptor type 2 (P30874 whole entry): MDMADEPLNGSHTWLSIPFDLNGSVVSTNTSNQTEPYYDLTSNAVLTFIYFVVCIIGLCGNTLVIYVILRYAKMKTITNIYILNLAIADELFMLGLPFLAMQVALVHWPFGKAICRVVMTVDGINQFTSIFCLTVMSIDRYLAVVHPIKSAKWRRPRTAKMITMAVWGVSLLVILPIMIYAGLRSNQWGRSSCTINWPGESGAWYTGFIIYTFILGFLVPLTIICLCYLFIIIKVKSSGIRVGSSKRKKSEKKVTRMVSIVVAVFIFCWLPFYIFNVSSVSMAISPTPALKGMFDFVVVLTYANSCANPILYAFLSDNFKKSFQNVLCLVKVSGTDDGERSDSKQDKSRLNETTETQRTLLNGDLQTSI
Sequence of Somatostatin receptor type 3 (P32745 whole entry): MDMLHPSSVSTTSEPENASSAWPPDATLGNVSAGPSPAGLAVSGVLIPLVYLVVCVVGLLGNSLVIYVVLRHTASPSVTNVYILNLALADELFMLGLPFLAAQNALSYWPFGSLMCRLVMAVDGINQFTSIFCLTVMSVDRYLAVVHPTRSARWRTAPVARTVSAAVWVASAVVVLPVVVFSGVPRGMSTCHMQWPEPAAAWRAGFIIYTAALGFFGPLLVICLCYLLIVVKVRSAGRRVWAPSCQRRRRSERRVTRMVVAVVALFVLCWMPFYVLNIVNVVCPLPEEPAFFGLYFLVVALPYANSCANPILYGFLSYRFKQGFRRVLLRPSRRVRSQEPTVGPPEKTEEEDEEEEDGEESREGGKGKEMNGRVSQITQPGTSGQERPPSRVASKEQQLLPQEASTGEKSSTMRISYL

Row | SMILES | pKi [1] | pKi [2] | pKi [3] | pKi [4]
1 | CC(C)[C@@H]1NC(=O)[C@H](CCCCN)NC(=O)[C@@H](Cc2c[nH]c3ccccc23)NC(=O)[C@H](Cc2ccc(O)cc2)NC(=O)[C@@H](C)N(C)C(=O)[C@H](Cc2ccccc2)NC1=O | 6.97 | 7.84 | – | –
2 | CC(C)[C@@H]1NC(=O)[C@H](CCCCN)NC(=O)[C@@H](Cc2c[nH]c3ccccc23)NC(=O)[C@H](Cc2ccc(O)cc2)NC(=O)[C@@H](NC(=O)[C@H](N)Cc2ccc3ccccc3c2)CSSC[C@@H](C(=O)N[C@H](C(N)=O)[C@@H](C)O)NC1=O [3-(2-Naphtyl)-D-Ala-L-Cys(1)-L-Tyr-D-Trp-L-Lys-L-Val-L-Cys(1)-L-Thr-NH2] | – | 7.37 | 8.74 | –
3 | CC1NC(=O)C(CCCCN)NC(=O)C(Cc2c[nH]c3ccccc23)NC(=O)C(Cc2ccc(O)cc2)NC(=O)C(NC(=O)C(N)Cc2ccccc2)CSSCC(C(=O)NCc2cccc3ccccc23)NC1=O (configuration not stated) [BIM 23034] (H-FCYWKAC-{NH(1-naphthylmethyl)}; disulfide 2-7; configuration not given here) | – | 8.11 | 8.57 | 7.57
4 | CC(C)[C@@H]1NC(=O)[C@H](CCCCN)NC(=O)[C@@H](Cc2c[nH]c3ccccc23)NC(=O)[C@H](Cc2ccc(O)cc2)NC(=O)[C@@H](NC(=O)[C@H](N)Cc2ccc3ccccc3c2)CSSC[C@@H](C(=O)N[C@@H](Cc2ccc3ccccc3c2)C(N)=O)NC1=O [BIM 23042] (H-[d2Nal]CY[dW]KVC[2Nal]-NH2; disulfide 2-7) | – | – | 9.62 | 6.00
5 | C[C@H](NC(=O)[C@H](N)Cc1ccccc1)C(=O)N[C@@H](Cc1ccccc1)C(=O)N[C@H](Cc1c[nH]c2ccccc12)C(=O)N[C@@H](CCCCN)C(=O)N[C@H](C(=O)N[C@@H](C)C(=O)N[C@H](C(N)=O)[C@@H](C)O)[C@@H](C)O [BIM 23051] (H-[dF]AF[dW]KTAT-NH2) | – | – | 6.00 | 7.31
6 | CC(C)[C@H](NC(=O)[C@H](CCCCN)NC(=O)[C@@H](Cc1c[nH]c2ccccc12)NC(=O)[C@H](Cc1ccc(O)cc1)NC(=O)[C@H](Cc1ccccc1)NC(=O)[C@H](N)Cc1ccccc1)C(=O)N[C@@H](Cc1ccccc1)C(=O)N[C@H](Cc1cccc2ccccc12)C(N)=O [BIM 23056] (H-[dF]FY[dW]KVF[d1Nal]-NH2) | 6.85 | 7.97 | 6.00 | 7.78
7 | CC(C)[C@H](NC(=O)[C@H](CCCCN)NC(=O)[C@@H](Cc1c[nH]c2ccccc12)NC(=O)[C@H](Cc1ccc(O)cc1)NC(=O)[C@H](Cc1ccc(Cl)cc1)NC(=O)[C@H](N)Cc1ccccc1)C(=O)N[C@@H](Cc1ccccc1)C(=O)N[C@H](C(N)=O)[C@@H](C)O [BIM 23057] (H-[dF][Phe(4-Cl)]Y[dW]KVFT-NH2) | – | – | 6.00 | 7.41
8 | CC(O)C1NC(=O)C(CCCCN)NC(=O)C(Cc2c[nH]c3ccccc23)NC(=O)C(Cc2ccc(O)cc2)NC(=O)C(NC(=O)C(N)Cc2ccccc2)CSSCC(C(=O)NCc2cccc3ccccc23)NC1=O (configuration not stated) [BIM 23060] (H-FCYWKTC-{NH(1-naphthylmethyl)}; disulfide 2-7; configuration not given here) | 7.21 | 7.84 | 9.15 | 7.25
9 | CC[C@H](NC(=O)[C@@H](N)Cc1ccc(Cl)cc1)C(=O)N[C@@H](Cc1ccc(O)cc1)C(=O)N[C@H](Cc1c[nH]c2ccccc12)C(=O)N[C@@H](CCCCN)C(=O)N[C@H](C(=O)N[C@@H](C)C(=O)N[C@H](Cc1ccccc1)C(N)=O)C(C)C [BIM 23067] (H-[Phe(4-Cl)][Abu]Y[dW]KVA[dF]-NH2) | 6.00 | 7.84 | 7.35 | 6.00
10 | C[C@@H](O)[C@H](NC(=O)[C@H](Cc1ccccc1)NC(=O)[C@@H](NC(=O)[C@H](CCCCN)NC(=O)[C@@H](Cc1c[nH]c2ccccc12)NC(=O)[C@H](Cc1ccc(O)cc1)NC(=O)[C@H](Cc1ccc(Cl)cc1)NC(=O)[C@H](N)Cc1ccccc1)[C@@H](C)O)C(N)=O [BIM 23068] (H-[dF][Phe(4-Cl)]Y[dW]KTFT-NH2) | – | 8.81 | 8.81 | 8.01
11 | CC(C)[C@H](NC(=O)[C@H](CCCCN)NC(=O)[C@@H](Cc1c[nH]c2ccccc12)NC(=O)[C@H](Cc1ccc(O)cc1)NC(=O)[C@H](Cc1ccccc1)NC(=O)[C@H](N)Cc1ccccc1)C(=O)N[C@@H](Cc1ccccc1)C(=O)N[C@H](C(N)=O)[C@@H](C)O [BIM-23058] (H-[dF]FY[dW]KVFT-NH2) | 6.94 | 8.85 | 8.01 | 8.08
12 | CC(C)[C@@H]1NC(=O)[C@H](CCCCN)NC(=O)[C@@H](Cc2c[nH]c3ccccc23)NC(=O)[C@H](Cc2ccc(O)cc2)NC(=O)[C@@H](NC(=O)[C@H](N)Cc2ccccc2)CSSC[C@@H](C(=O)N[C@@H](Cc2c[nH]c3ccccc23)C(N)=O)NC1=O [CAS_71306] (H-[dF]CY[dW]KVCW-NH2; disulfide 2-7) | 6.00 | 7.51 | 8.27 | 7.35
13 | C[C@@H](O)[C@H](NC(=O)[C@H](Cc1ccccc1)NC(=O)[C@@H](NC(=O)[C@H](CCCCN)NC(=O)[C@@H](Cc1c[nH]c2ccccc12)NC(=O)[C@H](Cc1ccccc1)NC(=O)[C@H](Cc1ccccc1)NC(=O)[C@H](N)Cc1ccccc1)[C@@H](C)O)C(N)=O [CAS_133073-82-2] (H-[dF]FF[dW]KTFT-NH2) | 7.50 | – | 7.87 | 6.85
14 | C[C@@H](O)[C@H](NC(=O)[C@H](Cc1ccccc1)NC(=O)[C@@H](NC(=O)[C@H](CCCCN)NC(=O)[C@@H](Cc1c[nH]c2ccccc12)NC(=O)[C@H](Cc1ccc(O)cc1)NC(=O)[C@H](Cc1ccc(Cl)cc1)NC(=O)[C@H](N)Cc1ccc2ccccc2c1)[C@@H](C)O)C(N)=O [CAS_150155-63-8] (H-[d2Nal][Phe(4-Cl)]Y[dW]KTFT-NH2) | – | – | 7.58 | 6.00
15 | CC(C)[C@H](NC(=O)[C@H](CCCCN)NC(=O)[C@@H](Cc1c[nH]c2ccccc12)NC(=O)[C@H](Cc1ccc(O)cc1)NC(=O)[C@H](C)NC(=O)[C@H](N)Cc1ccc(Cl)cc1)C(=O)N[C@@H](C)C(=O)N[C@@H](Cc1ccc2ccccc2c1)C(N)=O [CAS_150155-67-2] (H-[dPhe(4-Cl)]AY[dW]KVA[2Nal]-NH2) | – | – | 7.26 | 6.00
16 | CC(C)[C@H](NC(=O)[C@H](CCCCN)NC(=O)[C@@H](Cc1c[nH]c2ccccc12)NC(=O)[C@H](Cc1ccc(O)cc1)NC(=O)[C@H](C)NC(=O)[C@H](N)Cc1ccc2ccccc2c1)C(=O)N[C@@H](C)C(=O)N[C@H](C(N)=O)[C@@H](C)O [D-Nal-Ala-Tyr-D-Trp-Lys-Val-Ala-Thr-NH2] (H-[d2Nal]AY[dW]KVAT-NH2) | – | 7.88 | 8.23 | 6.00
17 | C[C@@H](O)[C@H](NC(=O)[C@@H]1CSSC[C@H](NC(=O)[C@H](N)Cc2ccc3ccccc3c2)C(=O)N[C@@H](Cc2ccc(O)cc2)C(=O)N[C@H](Cc2c[nH]c3ccccc23)C(=O)N[C@@H](CCCCN)C(=O)N[C@@H]([C@@H](C)O)C(=O)N1)C(N)=O [D-Nal-c[Cys-Tyr-D-Trp-Lys-Thr-Cys]-Thr-NH2] | 7.39 | 7.94 | 9.40 | 7.24
18 | CC[C@@H]1NC(=O)[C@H](CCCCN)NC(=O)[C@@H](Cc2c[nH]c3ccccc23)NC(=O)[C@H](Cc2ccc(O)cc2)NC(=O)[C@@H](NC(=O)[C@H](N)Cc2ccccc2)CSSC[C@@H](C(=O)N[C@@H](Cc2ccc3ccccc3c2)C(N)=O)NC1=O [D-Phe-Cys-Tyr-D-Trp-Lys-Abu-Cys-Nal-NH] (H-[dF]CY[dW]K[Abu]C[2Nal]-NH2; disulfide 2-7) | 6.00 | 10.05 | 10.62 | 6.00
19 | CC[C@@H]1NC(=O)[C@H](CCCCN)NC(=O)[C@@H](Cc2c[nH]c3ccccc23)NC(=O)[C@H](Cc2ccc(O)cc2)NC(=O)[C@@H](NC(=O)[C@H](N)Cc2ccccc2)CSSC[C@@H](C(=O)N[C@H](C(N)=O)[C@@H](C)O)NC1=O [D-Phe-L-Cys(1)-L-Tyr-D-Trp-L-Lys-L-Abu-L-Cys(1)-L-Thr-NH2] | – | 8.09 | – | 6.00
20 | CC(C)[C@H](NC(=O)[C@H](CCCCN)NC(=O)[C@@H](Cc1c[nH]c2ccccc12)NC(=O)[C@H](Cc1ccc(O)cc1)NC(=O)[C@H](Cc1ccccc1)NC(=O)[C@H](N)Cc1ccccc1)C(=O)N[C@@H](Cc1ccccc1)C(=O)N[C@H](Cc1ccccc1)C(N)=O [D-Phe-Phe-Tyr-D-Trp-Lys-Val-Phe-D-Phe-NH2] (H-[dF]FY[dW]KVF[dF]-NH2) | – | – | 6.00 | 6.30
21 | CC(C)C1NC(=O)C(CCCCN)NC(=O)C(Cc2c[nH]c3ccccc23)NC(=O)C(Cc2ccc(O)cc2)NC(=O)C(NC(=O)C(N)Cc2cccc3ccccc23)CSSCC(C(=O)NC(CO)C(C)O)NC1=O (configuration not stated) [DC23-60] (H-[1Nal]CYWKVC[Thr(ol)]; disulfide 2-7; configuration not given here) | 7.15 | 7.14 | 9.59 | 6.00
22 | CC(O)C1NC(=O)C(CCCCN)NC(=O)C(Cc2c[nH]c3ccccc23)NC(=O)C(Cc2ccccc2)NC(=O)C(NC(=O)C(N)Cc2ccccc2)CSSCC(C(=O)NCc2cccc3ccccc23)NC1=O (configuration not stated) [EC5-21] (H-FCFWKTC-{NH(1-naphthylmethyl)}; disulfide 2-7; configuration not given here) | – | 7.16 | 10.55 | 6.68
23 | CC(C)[C@H](NC(=O)[C@H](CCCCN)NC(=O)[C@@H](Cc1c[nH]c2ccccc12)NC(=O)[C@H](Cc1ccc(O)cc1)NC(=O)[C@H](C)NC(=O)[C@H](N)Cc1ccccc1)C(=O)N[C@@H](C)C(=O)N[C@@H](Cc1ccc2ccccc2c1)C(N)=O [L-Alaninamide,D-phenylalanyl-L-alanyl-L-tyrosyl-D-tryptophyl-L-lysyl-L-valyl-L-alanyl-3-(2-naphthalenyl)-(9CI)] (H-[dF]AY[dW]KVA[2Nal]-NH2) | – | – | 8.08 | 6.00
